Where “and” joins values, the source holds several entries; their conditions need not be identical. Equal entries are not always repeated. Where two headings read alike, the source gives them in different places.
Experiments:
[1] = tested on: HCoV‐229E; assay: microbe, parasite or virus in culture; assay type: cell-based; details: for inhibition at 10 µM: Human coronavirus 229E, Huh-7, read-out: Protective effects HCoV-229E %; for inhibition at 10 µM / Protective effects HCoV-229E %: compared with vehicle control, Huh7 cells, n = 1, at 10 μM
[2] = tested on: Huh7 cells; details: at 10 μM, compared with vehicle control, n = 1
[3] = tested on: hACE‐2‐overexpressed HEK293T (ACE2‐293T cells)
[4] = in vitro; details: human

| Compound | inhibition at 10 µM [1] | Cytotoxicity to the host Huh7 cells % [2] | cytotoxicity towards hACE2‐293 T cells (in words) [3] | viability at 10 µM [4] | EC50 [1] | Protective effects HCoV-229E % [1] | Cell viability (%) ([3]; 10 µM) | Cell viability (%) ([3]; ACE2-293T, 10 μM, 24 h, WST-1) |
| --- | --- | --- | --- | --- | --- | --- | --- | --- |
| COc1cc2c3cc1Oc1c(OC)c(OC)cc4c1[C@@H](Cc1ccc(O)c(c1)Oc1ccc(cc1)C[C@@H]3N(C)CC2)N(C)CC4 [Compound 17, (+)‐berbamine] | 70% | 25% and ~ 20% | nontoxic | 103 ± 2.42% |  |  |  |  |
| (+)‐aromoline [Compound 16] |  | — (Non-toxic (insignificant cytotoxic effects, below 20%)) | nontoxic |  | 4.33 ± 0.9 µM | 85% | 103.64 ± 3.23% |  |
| (±)‐Haemanthidine [Compound 1] |  | 20% and ~ 20% | toxic |  | 4.11 ± 0.41 µM | 80% |  | 51.97 ± 7.07% |
| COc1cc2c3cc1Oc1c(O)c(OC)cc4c1[C@@H](Cc1ccc(O)c(c1)Oc1ccc(cc1)C[C@@H]3N(C)CC2)N(C)CC4 [Compound 19, (+)‐obamegine] | 80% | — (Non-toxic (insignificant cytotoxic effects, below 20%)) | nontoxic | 97.5 ± 7.15% |  |  |  |  |

Reference: publication PMC12497685, “Anticoronavirus Isoquinoline Alkaloids: Unraveling the Secrets of Their Structure–Activity Relationship” (Influenza and Other Respiratory Viruses, 2025)
